Where two headings read alike, the source gives them in different places.
Tests used:
IRAK4 [1] = biological target: T1, IRAK4 (Homo sapiens, UniProt Q9NWZ3); test: Assay for inhibitory effect of compound on IRAK4 kinase activity (KinEASE-STK S1 HTRF kit); type: biochemical
T1 sequence (Q9NWZ3 1-460): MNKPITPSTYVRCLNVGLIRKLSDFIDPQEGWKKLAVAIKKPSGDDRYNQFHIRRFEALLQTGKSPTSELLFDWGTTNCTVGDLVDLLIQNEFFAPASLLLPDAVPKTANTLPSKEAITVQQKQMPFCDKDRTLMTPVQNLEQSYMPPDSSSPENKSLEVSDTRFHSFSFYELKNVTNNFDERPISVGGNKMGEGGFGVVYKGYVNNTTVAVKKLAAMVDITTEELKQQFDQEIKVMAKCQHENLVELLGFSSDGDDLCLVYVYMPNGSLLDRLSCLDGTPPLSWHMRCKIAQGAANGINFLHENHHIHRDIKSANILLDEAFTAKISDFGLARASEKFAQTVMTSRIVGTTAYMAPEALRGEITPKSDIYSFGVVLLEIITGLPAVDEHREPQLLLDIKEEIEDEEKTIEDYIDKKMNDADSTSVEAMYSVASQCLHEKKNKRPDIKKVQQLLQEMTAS
Procedure: Example 1: Kinase activity assay
Assay for inhibitory effect of compound on IRAK4 kinase activity
The inhibitory effect of the compound on IRAK4 kinase activity was measured using the KinEASE-STK S1 serine/threonine kinase kit (Cisbio). The specific method was as follows: the compound was dissolved in dimethyl sulfoxide and then subjected to 3-fold serial dilution in dimethyl sulfoxide, yielding final test compound concentrations in the reaction system ranging from 5,000 nM to 0.0254 nM. The kinase at a final concentration of 8 nM was added, followed by incubation at rt for 15 minutes. Subsequently, biotinylated STK1 substrate at a final concentration of 400 nM and adenosine triphosphate (ATP) at a final concentration of 80 µM were sequentially added, and the mixture was incubated at 37°C for 90 minutes. Then, the reaction was terminated by adding an anti-phosphoserine/threonine antibody conjugated with a europium cryptate and streptavidin-conjugated XL665 to the reaction system. After incubation at rt for 1 hour, the fluorescence intensity at emission wavelengths of 620 nm and 665 nm for each well was measured using an EnVision microplate reader (PerkinElmer) in HTRF mode. The ratio value was calculated using the formula: Ratio = (665 nm/620 nm)×10^4 The inhibition rate of the compound at each concentration was calculated using the formula: Inhibition% = [1-(Signal sample-Signal min)/(Signal max-Signal min)]×100. Subsequently, the dose-response curve was fitted by nonlinear curve fitting of log concentration versus inhibition rate using Fit Modela (205) in XLfit to give the IC50 value of the compound for inhibition of protein activity.

IRAK4 [2] = biological target: T1, IRAK4; test: Degradation of IRAK4 in THP1 cells, Western blot; type: cell-based; design: Degradation of IRAK4 in THP1 by compound; host or cells: THP-1; details: THP-1 cells, 24 hours of incubation
Outline: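 THP1 cells treated 24 h, lysed; lysates normalised by BCA, 40 μg protein per lane on 10% SDS-PAGE, anti-IRAK4 Western blot with chemiluminescence detection.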

[3] = kinase 8 nM, ATP 80 µM, 37°C 90 minutes, read-out: IRAK4 HTRF IC50

| SMILES | IC50 (IRAK4 [1]; [3]) [nM] | other results |
| --- | --- | --- |
| CC(C)(C)OC(=O)N1CCC(n2cc(NC(=O)c3cccc(C(F)(F)F)n3)c(C(N)=O)n2)CC1 [Compound A1] | 100 to 1000 |  |
| NC(=O)c1nn(-c2cnc(Br)cn2)cc1NC(=O)c1cccc(C(F)(F)F)n1 [Compound A2] | > 1000 |  |
| NC(=O)c1nn(C2CCNCC2)cc1NC(=O)c1cccc(C(F)(F)F)n1 [Compound A3] | 100 to 1000 |  |
| NC(=O)c1cn(-c2ccccc2)nc1NC(=O)c1cccc(C(F)(F)F)n1 [Compound A4] | > 1000 |  |
| NC(=O)c1nn(-c2ccccc2)cc1NC(=O)c1cccc(C(F)(F)F)n1 [Compound A5] | < 100 |  |
| NC(=O)c1nn(-c2ccc(O)cc2)cc1NC(=O)c1cccc(C(F)(F)F)n1 [Compound A6] | < 100 |  |
| COc1ccc(-n2cc(NC(=O)c3cccc(C(F)(F)F)n3)c(C(N)=O)n2)cc1 [Compound A7] | 100 to 1000 |  |
| NC(=O)c1nn(-c2ccc(N)cc2)cc1NC(=O)c1cccc(C(F)(F)F)n1 [Compound A9] | 100 to 1000 |  |
| CNc1ccc(-n2cc(NC(=O)c3cccc(C(F)(F)F)n3)c(C(N)=O)n2)cc1 [Compound A10] | 100 to 1000 |  |
| CC(=O)Nc1ccc(-n2cc(NC(=O)c3cccc(C(F)(F)F)n3)c(C(N)=O)n2)cc1 [Compound A12] | < 100 |  |
| CNC(=O)c1ccc(-n2cc(NC(=O)c3cccc(C(F)(F)F)n3)c(C(N)=O)n2)cc1 [Compound A14] | < 100 |  |
| CN(C)C(=O)c1ccc(-n2cc(NC(=O)c3cccc(C(F)(F)F)n3)c(C(N)=O)n2)cc1 [Compound A15] | < 100 |  |
| NC(=O)c1nn(-c2ccc(C(=O)N3CCNCC3)cc2)cc1NC(=O)c1cccc(C(F)(F)F)n1 [Compound A16] | < 100 |  |
| NC(=O)c1nn(-c2ccc(C(=O)O)c(F)c2)cc1NC(=O)c1cccc(C(F)(F)F)n1 [Compound A17] | 100 to 1000 |  |
| NC(=O)c1nn(-c2ccc(CO)cc2)cc1NC(=O)c1cccc(C(F)(F)F)n1 [Compound A18] | 100 to 1000 |  |
| COCc1ccc(-n2cc(NC(=O)c3cccc(C(F)(F)F)n3)c(C(N)=O)n2)cc1 [Compound A19] | < 100 |  |
| NCc1ccc(-n2cc(NC(=O)c3cccc(C(F)(F)F)n3)c(C(N)=O)n2)cc1 [Compound A20] | < 100 |  |
| CNCc1ccc(-n2cc(NC(=O)c3cccc(C(F)(F)F)n3)c(C(N)=O)n2)cc1 [Compound A21] | < 100 |  |
| NC(=O)c1nn(-c2ccc(C(=O)O)nc2)cc1NC(=O)c1cccc(C(F)(F)F)n1 [Compound A31] |  | IC50 (IRAK4 [1]): 100 to 1000 nM |
| COc1nn(-c2ccc(N3CCNCC3)cc2)cc1NC(=O)c1cccc(C(F)(F)F)n1 [Compound A39] |  | IC50 (IRAK4 [1]): 100 to 1000 nM |
| CS(=N)(=O)c1cn(-c2ccccc2)nc1NC(=O)c1cccc(C(F)(F)F)n1 (stereo not shown) [Compound A60] |  | IC50 (IRAK4 [1]): > 1000 nM |
| COc1ccc(C(=O)N2CCC(CCN3CCN(c4ccc(-n5cc(NC(=O)c6cccc(C(F)(F)F)n6)c(C(C)(C)O)n5)cc4)CC3)CC2)cc1N1CCC(=O)NC1=O [Compound A454, N-(1-(4-(4-(2-(1-(3-(2,4-Dioxotetrahydropyrimidin-1(2H)-yl)-4-methoxybenzoyl)piperidin-4-yl)ethyl)piperazin-1-yl)phenyl)-3-(2-hydroxypropan-2-yl)-1H-pyrazol-4-yl)-6-(trifluoromethyl)picolinamide] |  | DC50 (IRAK4 [2]; IRAK4 protein by Western blot, read-out: DC50): < 100 nM; Dmax (IRAK4 [2]; maximum degradation rate, read-out: Dmax): > 60% |

Continued, in another order:

| IC50 (IRAK4 [1]; [3]) [nM] | SMILES | other results |
| --- | --- | --- |
| < 100 | CN(C)Cc1ccc(-n2cc(NC(=O)c3cccc(C(F)(F)F)n3)c(C(N)=O)n2)cc1 [Compound A22] |  |
| < 100 | CC(=O)NCc1ccc(-n2cc(NC(=O)c3cccc(C(F)(F)F)n3)c(C(N)=O)n2)cc1 [Compound A23] |  |
| < 100 | CC(=O)N(C)Cc1ccc(-n2cc(NC(=O)c3cccc(C(F)(F)F)n3)c(C(N)=O)n2)cc1 [Compound A24] |  |
| < 100 | NC(=O)c1nn(-c2ccc(N3CCNCC3)cc2)cc1NC(=O)c1cccc(C(F)(F)F)n1 [Compound A25] |  |
| < 100 | CN1CCN(c2ccc(-n3cc(NC(=O)c4cccc(C(F)(F)F)n4)c(C(N)=O)n3)cc2)CC1 [Compound A26] |  |
| < 100 | CC(=O)N1CCN(c2ccc(-n3cc(NC(=O)c4cccc(C(F)(F)F)n4)c(C(N)=O)n3)cc2)CC1 [Compound A27] |  |
| < 100 | NC(=O)c1nn(-c2ccc(N3CCN(C(=O)c4ccccc4)CC3)cc2)cc1NC(=O)c1cccc(C(F)(F)F)n1 [Compound A28] |  |
| 100 to 1000 | NC(=O)c1nn(-c2cccnc2)cc1NC(=O)c1cccc(C(F)(F)F)n1 [Compound A29] |  |
| < 100 | NC(=O)c1nn(C2CC(N)C2)cc1NC(=O)c1cccc(C(F)(F)F)n1 (stereo not shown) [Compound A32] |  |
| 100 to 1000 | NC(=O)c1nn(C2CNC2)cc1NC(=O)c1cccc(C(F)(F)F)n1 [Compound A33] |  |
| 100 to 1000 | NC(=O)c1nn(C2COC3(CCNCC3)C2)cc1NC(=O)c1cccc(C(F)(F)F)n1 (stereo not shown) [Compound A35] |  |
| 100 to 1000 | NC(=O)c1nn(C2CCC(N)CC2)cc1NC(=O)c1cccc(C(F)(F)F)n1 (stereo not shown) [Compound A36] |  |
| < 100 | O=C(Nc1cn(-c2ccc(N3CCNCC3)cc2)nc1C(F)F)c1cccc(C(F)(F)F)n1 [Compound A42] |  |
| > 1000 | CNC1CC(c2nn(-c3ccccc3)cc2NC(=O)c2cccc(C(F)(F)F)n2)C1 (stereo not shown) [Compound A44, N-(3-(3-(Methylamino)cyclobutyl)-1-phenyl-1H-pyrazol-4-yl)-6-(trifluoromethyl)picolinamide] |  |
| 100 to 1000 | NC(=O)c1nn(-c2cncnc2)cc1NC(=O)c1cccc(C(F)(F)F)n1 [Compound A45] |  |
| 100 to 1000 | CC(C)(O)c1nn(-c2ccccc2)cc1NC(=O)c1cccc(C(F)(F)F)n1 [Compound A46, N-(3-(2-hydroxypropan-2-yl)-1-phenyl-1H-pyrazol-4-yl)-6-(trifluoromethyl)picolinamide] |  |
| < 100 | NC(=O)c1cn(-c2ccccc2)cc1NC(=O)c1cccc(C(F)(F)F)n1 [Compound A47] |  |
| < 100 | NC(=O)c1[nH]c(-c2ccccc2)cc1NC(=O)c1cccc(C(F)(F)F)n1 [Compound A48] |  |
| > 1000 | NC(=O)c1sc(-c2ccccc2)cc1NC(=O)c1cccc(C(F)(F)F)n1 [Compound A50] |  |
| > 1000 | NC(=O)c1cc(-c2ccccc2)sc1NC(=O)c1cccc(C(F)(F)F)n1 [Compound A51] |  |
| > 1000 | NC(=O)c1cc(-c2ccccc2)oc1NC(=O)c1cccc(C(F)(F)F)n1 [Compound A53] |  |
| > 1000 | NC(=O)c1nc(-c2ccccc2)[nH]c1NC(=O)c1cccc(C(F)(F)F)n1 [Compound A54] |  |
| > 1000 | NC(=O)c1sc(-c2ccccc2)nc1NC(=O)c1cccc(C(F)(F)F)n1 [Compound A55, 2-Phenyl-4-(6-(trifluoromethyl)picolinamido)thiazole-5-carboxamide] |  |
| > 1000 | NC(=O)c1nc(-c2ccccc2)sc1NC(=O)c1cccc(C(F)(F)F)n1 [Compound A56, 2-Phenyl-5-(6-(trifluoromethyl)picolinamido)thiazole-4-carboxamide] |  |
| > 1000 | NC(=O)c1oc(-c2ccccc2)nc1NC(=O)c1cccc(C(F)(F)F)n1 [Compound A57, 2-Phenyl-4-(6-(trifluoromethyl)picolinamido)oxazole-5-carboxamide] |  |
| > 1000 | NC(=O)c1nc(-c2ccccc2)oc1NC(=O)c1cccc(C(F)(F)F)n1 [Compound A58, 2-Phenyl-5-(6-(trifluoromethyl)picolinamido)oxazole-4-carboxamide] |  |
| > 1000 | NS(=O)(=O)c1cn(-c2ccccc2)nc1NC(=O)c1cccc(C(F)(F)F)n1 [Compound A59, N-(1-phenyl-4-sulfamoyl-1H-pyrazol-3-yl)-6-(trifluoromethyl)picolinamide] |  |
| > 1000 | CC(C)(O)c1cn(-c2ccccc2)nc1NC(=O)c1cccc(C(F)(F)F)n1 [Compound A61, N-(4-(2-hydroxypropan-2-yl)-1-phenyl-1H-pyrazol-3-yl)-6-(trifluoromethyl)picolinamide] |  |
| 100 to 1000 | NS(=O)(=O)c1nn(-c2ccccc2)cc1NC(=O)c1cccc(C(F)(F)F)n1 [Compound A62, N-(1-phenyl-3-sulfamoyl-1H-pyrazol-4-yl)-6-(trifluoromethyl)picolinamide] |  |

— patent EP4763839A1 (Pamplona Therapeutics (Shenzhen) Co., Ltd., priority 2023, dated 2025)
